Test results from patent US20030100550A1, “Carboxamide diazepin derivatives, preparation method, use as medicines, pharmaceutical compositions and use thereof” (priority 2002, published 2003).

Assays:
Assay type in all cases: biochemical
Cathepsin K = target: T1, Cathepsin K (Homo sapiens, UniProt P43235); experiment: Study of Cathepsin K inhibition (fluorescence, Z-Val-arg-AMC); settings: for IC50: substrate Z-Val-arg-AMC 20 μM, enzyme 5 ng/ml, 2H at ambient temperature, read-out: Cathepsin K IC50
T1 sequence (P43235 115-329): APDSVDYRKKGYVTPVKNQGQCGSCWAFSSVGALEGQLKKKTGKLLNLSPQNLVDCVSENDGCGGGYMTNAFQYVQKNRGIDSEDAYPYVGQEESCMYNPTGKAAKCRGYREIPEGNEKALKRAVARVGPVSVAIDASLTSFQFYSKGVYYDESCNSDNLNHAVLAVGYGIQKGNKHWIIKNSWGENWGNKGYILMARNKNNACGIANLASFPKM
Experimental: Study of Cathepsin K Inhibition:
(§1) The products to be tested (10 mM) are diluted to […] in DMSO and distributed into Nunc polystyrene 96 well plates at a rate of 2 μl per well. Column 12 of the plate is reserved for the controls and therefore receives […] of DMSO (without products) per well. The plates are stored at −80° C. and thawed on the day of the experiment.
(§2) The products are diluted to 50 μM by adding 38 μl of reaction buffer: sodium acetate 100 mM, EDTA 5 mM, DTT […] pH 5.5. The addition as well as all the operations by pipette are carried out with a CybiWell 96 tip pipette. After mixing the solutions, each product is transferred into 2 wells (duplicates) of a Greiner black 384 well plate at a rate of 10 μl per well. Two 96-well plates can therefore be tested in a 384-well plate.
(§3) A solution of substrate at 50 μM, Z-Val-arg-AMC (Calbiochem), is prepared in the reaction buffer. The substrate, is then distributed into all the wells of the 384-well plate (20 μl per well).
(§4) A solution of Cathepsin K at 12.5 ng/ml is prepared in the reaction buffer and distributed into all the wells of the 384-well plate (20 μl per well) except for the 16 wells serving as 100% inhibition controls (column 23 and 24, lines I to P) which receive 20 μl of enzyme-free buffer.
(§5) The plates are then incubated 2H at ambient temperature, then read on Fluoroskan (Labsystems): excitation 390 nm; emission 460 nm
(§6) The final concentrations of each of the reagents are: products 10 μM, substrate 20 μM, enzyme 5 ng/ml.
(§7) The % inhibition for each of the products is calculated by using points at 0 and 100% inhibition of each plate as references. The products presenting a significant inhibition are then retested on a range of concentrations from 50 to 0.5 μM to determine an IC50.

Papain = target: T2, Papain (Carica papaya, UniProt P00784); experiment: Study of Papain inhibition (fluorescence); settings: enzyme 20 ng/ml, 30 minutes at ambient temperature
T2 construct: purchased Sigma
T2 sequence (P00784 134-345): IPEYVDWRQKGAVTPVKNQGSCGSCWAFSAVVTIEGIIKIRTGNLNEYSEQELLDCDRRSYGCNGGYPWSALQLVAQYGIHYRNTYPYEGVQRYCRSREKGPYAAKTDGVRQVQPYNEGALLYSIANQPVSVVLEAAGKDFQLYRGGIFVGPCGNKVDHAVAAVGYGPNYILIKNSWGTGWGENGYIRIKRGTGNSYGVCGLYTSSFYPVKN
Experimental: as §1, §2, §3, §4, §5, §6, §7
Study of Papain Inhibition:
(§8) Protocol identical to that of Cathepsin K except for:
Papain (Sigma), solution at 50 ng/ml, final concentration 20 ng/ml
Incubation for 30 minutes at ambient temperature

Cathepsin B = target: T3, Cathepsin B (Homo sapiens, UniProt P07858); experiment: Study of Cathepsin B inhibition (fluorescence, Z-arg-arg-AMC)
T3 construct: purchased Calbiochem
Experimental: as §1, §2, §3, §4, §5, §6, §7
Study of Cathepsin B Inhibition:
as §8
Z-arg-arg-AMC substrate (Calbiochem), solution at 50 μM, final concentration 20 μM
Cathepsin B (Calbiochem), solution at 40 ng/ml, final concentration 16 ng/ml
Incubation for 1 hour at ambient temperature

[1] = printed beside 20 μM, meaning not explained

Compound | IC50 (Cathepsin K) [µM] | IC50 (Papain) [µM] | Cathepsin K, percentage in parentheses beside IC50 value (% inhibition) (Cathepsin K; [1]) [%] | IC50 (Cathepsin B; substrate Z-arg-arg-AMC 20 μM, enzyme 16 ng/ml, 1 hour at ambient temperature) [µM] | Cathepsin B, percentage in parentheses beside IC50 value (% inhibition) (Cathepsin B; [1]) [%]
C=CCOC(=O)CC[C@H](NC(=O)[C@@H]1CCCN2C(=O)CC[C@H](NC(=O)Nc3ccc(Oc4ccccc4)cc3)C(=O)N12)C(=O)CSc1nnnn1-c1ccccc1 [Example 128, (2-propenyl)(4S)6-[(1-phenyl-1H-tetrazol-5-yl)thio]-4-[[[(1S,9S)-9-[[[(4-phenoxyphenyl)amino]carbonyl]amino]-octahydro-6,10-dioxo-6H-pyridazino[1,2-a][1,2]diazepine-1-yl]carbonyl]amino]-5-oxo-hexanoate] | 20 | 6 |  |  | 
C=CCOC(=O)CC[C@H](NC(=O)[C@@H]1CCCN2C(=O)CC[C@H](NC(=O)Nc3ccc(Oc4ccccc4)cc3)C(=O)N12)C(=O)CSc1nc2ccccc2s1 [Example 129, (2-propenyl)(4S)6-[(benzothiazol-2-yl)thio]-4-[[[(1S,9S)-9-[[[(4-phenoxyphenyl)amino]carbonyl]amino]-octahydro-6,10-dioxo-6H-pyridazino[1,2-a][1,2]diazepine-1-yl]carbonyl]amino]-5-oxo-hexanoate] |  | 4 |  |  | 
C=CCOC(=O)CC[C@H](NC(=O)[C@@H]1CCCN2C(=O)CC[C@H](NC(=O)Nc3ccc(Oc4ccccc4)cc3)C(=O)N12)C(=O)CSCc1ccc(OC)cc1 [Example 130, (2-propenyl)(4S)6-[[(4-methoxyphenyl)methyl]thio]-4-[[[(1S,9S)-9-[[[(4-phenoxyphenyl)amino]carbonyl]amino]-octahydro-6,10-dioxo-6H-pyridazino[1,2-a][1,2]diazepine-1-yl]carbonyl]amino]-5-oxo-hexanoate] | 20 | 6 |  |  | 
C=CCOC(=O)CC[C@H](NC(=O)[C@@H]1CCCN2C(=O)CC[C@H](NC(=O)Nc3ccc(Oc4ccccc4)cc3)C(=O)N12)C(=O)COC(=O)c1ccncc1 [Example 131, (2-propenyl)(4S)6-[[(4-pyridinyl)carbonyl]oxy]-4-[[[(1S,9S)-9-[[[(4-phenoxyphenyl)amino]carbonyl]amino]-octahydro-6,10-dioxo-6H-pyridazino[1,2-a][1,2]diazepine-1-yl]carbonyl]amino]-5-oxo-hexanoate] | 7 | 9 |  |  | 
C=CCOC(=O)CC[C@H](NC(=O)[C@@H]1CCCN2C(=O)CC[C@H](NC(=O)Nc3ccc(Oc4ccccc4)cc3)C(=O)N12)C(=O)COC(=O)Cc1ccsc1 [Example 134, (2-propenyl)(4S)6-[1-oxo-2-(thien-3-yl)ethoxy]-4-[[[(1S,9S)-9-[[[(4-phenoxyphenyl)amino]carbonyl]amino]-octahydro-6,10-dioxo-6H-pyridazino[1,2-a][1,2]diazepine-1-yl]carbonyl]amino]-5-oxo-hexanoate] | 20 | 7 |  |  | 
[N-]=[N+]=CC(=O)[C@H](Cc1ccccc1)NC(=O)[C@@H]1CCCN2C(=O)CC[C@H](NS(=O)(=O)c3ccc(-c4ccon4)s3)C(=O)N12 [Example 166, 9-[(9S)-[[5-(isoxazol-3-yl)-2-thienyl]sulphonyl]amino]-N-((2S)-4-diazo-1-phenyl-3-oxo-2-butyl)-octahydro-6,10-dioxo-6H-(1S)-pyridazino[1,2-a][1,2]diazepine-1-carboxamide] | 20 | 2 |  |  | 
O=C(Nc1ccc(Oc2ccccc2)cc1)N[C@H]1CCC(=O)N2CCC[C@@H](C(=O)N[C@@H](Cc3ccccc3)C(=O)CSc3nnnn3-c3ccccc3)N2C1=O [Example 211, 9-[(9S)-[[(4-phenoxyphenyl)amino]carbonyl]amino]-N-[(2S)-1-phenyl-4-[(1-phenyl-1H-tetrazol-5-yl)thio]-3-oxo-2-butyl]-octahydro-6,10-dioxo-6H-(1S)-pyridazino[1,2-a][1,2]diazepine-1-carboxamide] | 20 | 6 |  |  | 
O=C(Nc1ccc(Oc2ccccc2)cc1)N[C@H]1CCC(=O)N2CCC[C@@H](C(=O)N[C@@H](Cc3ccccc3)C(=O)COC(=O)Cc3ccsc3)N2C1=O [Example 216, 9-[(9S)-[[(4-phenoxyphenyl)amino]carbonyl]amino]-N-[(2S)-1-phenyl-4-[1-oxo-2-(3-thienyl)ethoxy]-3-oxo-2-butyl]-octahydro-6,10-dioxo-6H-(1S)-pyridazino[1,2-a][1,2]diazepine-1-carboxamide] |  | 6 |  |  | 
COC(=O)CCCC(=O)OCC(=O)[C@H](Cc1ccccc1)NC(=O)[C@@H]1CCCN2C(=O)CC[C@H](NC(=O)Nc3ccc(Oc4ccccc4)cc3)C(=O)N12 [Example 217] | 20 | 7 | 30 |  | 
O=C(NCCc1cccs1)N[C@H]1CCC(=O)N2CCC[C@@H](C(=O)N[C@@H](Cc3ccccc3)C(=O)CSc3nnnn3-c3ccccc3)N2C1=O [Example 220, 9-[(9S)-[[[2-(thien-2-yl)-ethyl]amino]carbonyl]amino]-N-[(2S)-1-phenyl-4-[(1-phenyl-1H-tetrazol-5-yl)thio]-3-oxo-2-butyl]-octahydro-6,10-dioxo-6H-(1S)-pyridazino [1,2-a][1,2]diazepine-1-carboxamide] | 20 | 6 |  |  | 
O=C(NCCc1cccs1)N[C@H]1CCC(=O)N2CCC[C@@H](C(=O)N[C@@H](Cc3ccccc3)C(=O)CSc3nc4ccccc4s3)N2C1=O [Example 221, 9-[(9S)-[[[2-(thien-2-yl)-ethyl]amino]carbonyl]amino]-N-[(2S)-1-phenyl-4-[(2-benzothiazolyl)thio]-3-oxo-2-butyl]-octahydro-6,10-dioxo-6H-(1S)-pyridazino[1,2-a][1,2]diazepine-1-carboxamide] | 20 | 7 |  |  | 
O=C(CSc1nc2ccccc2s1)[C@H](Cc1ccccc1)NC(=O)[C@@H]1CCCN2C(=O)CC[C@H](NS(=O)(=O)c3ccc(C(F)(F)F)cc3)C(=O)N12 [Example 241, 9-[(9S)-[[[4-(trifluoromethyl)phenyl]sulphonyl]amino]-N-[(2S)-1-phenyl-4-(2-benzothiazolyl)thio]-3-oxo-2-butyl]-octahydro-6,10-dioxo-6H-(1S)-pyridazino[1,2-a][1,2]diazepine-1-carboxamide] |  | 7 |  |  | 
COc1cccc(C(=O)N[C@H]2CCC(=O)N3CCC[C@@H](C(=O)N[C@H](C(=O)CSc4nc5ccccc5s4)C(C)C)N3C2=O)c1 [Example 366, 9-[(9S)-(3-methoxybenzoyl)amino]-N-[(3S)-1-[(benzothiazol-2-yl)thio]-4-methyl-2-oxo-3-pentyl]-octahydro-6,10-dioxo-6H-(1S)-pyridazino[1,2-a][1,2]diazepine-1-carboxamide] |  | 17 |  |  | 
CC(C)[C@H](NC(=O)[C@@H]1CCCN2C(=O)CC[C@H](NC(=O)NCCc3cccs3)C(=O)N12)C(=O)CSc1nc2ccccc2s1 [Example 398, 9-[(9S)-[[[2-(thien-2-yl)-ethyl]amino]carbonyl]amino]-N-[(3S)-1-[(benzothiazol-2-yl)thio]-4-methyl-2-oxo-3-pentyl]-octahydro-6,10-dioxo-6H-(1S)-pyridazino[1,2-a][1,2]diazepine-1-carboxamide] |  | 9 |  |  | 
C[C@H](NC(=O)[C@@H]1CCCN2C(=O)CC[C@H](NC(=O)NCCc3cccs3)C(=O)N12)C(=O)COC(=O)c1c(Cl)cccc1Cl [Example 473, 9-[(9S)-[[[2-(thien-2-yl)-ethyl]amino]carbonyl]amino]-N-[(2S)-4-[(2,6-dichlorobenzoyl)oxy]-3-oxo-2-butyl]-octahydro-6,10-dioxo-6H-(1S)-pyridazino[1,2-a][1,2]diazepine-1-carboxamide] | 20 |  |  | 1.5 | 
(2-propenyl)(4S)6-diazo-4-[[[(1S,9S)-9-[[[[2-(p-2-yl)-ethyl]amino]carbonyl]amino]-octahydro-6,10-dioxo-6H-pyridazino[1,2-a][1,2]diazepine-1-yl]carbonyl]amino]-5-oxo-hexanoate [Example 44] | 2 |  |  |  | 40
